Results taken from ChEMBL document CHEMBL1135943, “Modifications and structure-activity relationships at the 2-position of 4-sulfonamidopyrimidine derivatives as potent endothelin antagonists” (Bioorg Med Chem Lett, 2002).
pIC50: −log10 of the molar value. Converted amounts (≈) assume the structure as drawn.

How the values were obtained:
[1] = Water solubility at pH 7.4; format: physicochemical
[2] = molecular target: T1, Endothelin receptor type B (Rattus norvegicus, UniProt P21451); test: In vitro inhibition of [125 I]ET-1 binding to Endothelin B receptor (ETB-receptor) in rat cerebellum membranes; format: cell membranes, Membrane
T1 sequence (P21451 whole entry): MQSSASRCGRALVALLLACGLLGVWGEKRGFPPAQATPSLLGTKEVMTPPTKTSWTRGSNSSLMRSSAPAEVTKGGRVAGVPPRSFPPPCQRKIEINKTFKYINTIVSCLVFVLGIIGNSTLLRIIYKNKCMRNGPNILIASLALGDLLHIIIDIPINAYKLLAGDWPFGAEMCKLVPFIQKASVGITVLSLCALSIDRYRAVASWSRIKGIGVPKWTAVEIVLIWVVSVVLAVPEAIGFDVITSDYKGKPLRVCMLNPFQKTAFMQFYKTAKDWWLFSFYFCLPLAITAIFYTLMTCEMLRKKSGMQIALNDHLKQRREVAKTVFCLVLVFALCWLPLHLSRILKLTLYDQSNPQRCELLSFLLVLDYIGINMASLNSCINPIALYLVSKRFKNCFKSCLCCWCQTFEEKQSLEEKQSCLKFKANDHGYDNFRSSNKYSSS

Endothelin-1 receptor = molecular target: T2, Endothelin-1 receptor (Sus scrofa, UniProt Q29010); test: In vitro inhibition of [125 I]ET-1 binding to Endothelin A receptor in porcine aortic membrane.; format: cell membranes
T2 sequence (Q29010 whole entry): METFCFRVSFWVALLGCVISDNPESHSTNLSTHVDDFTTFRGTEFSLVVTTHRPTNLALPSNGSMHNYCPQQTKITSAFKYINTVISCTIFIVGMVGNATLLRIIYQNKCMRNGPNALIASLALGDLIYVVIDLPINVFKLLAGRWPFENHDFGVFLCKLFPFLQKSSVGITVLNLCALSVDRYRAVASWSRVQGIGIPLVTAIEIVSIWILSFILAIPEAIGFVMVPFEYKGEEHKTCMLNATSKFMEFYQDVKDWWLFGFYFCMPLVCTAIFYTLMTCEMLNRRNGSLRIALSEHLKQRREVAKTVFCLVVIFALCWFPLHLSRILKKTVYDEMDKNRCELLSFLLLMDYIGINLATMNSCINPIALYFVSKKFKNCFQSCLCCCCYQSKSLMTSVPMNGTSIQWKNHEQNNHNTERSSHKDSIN

[3] = Water solubility at pH 7.5; format: physicochemical

Row | pIC50 (Endothelin-1 receptor) | Compound | other results
1 |  | COc1ccccc1Oc1c(NS(=O)(=O)c2ccc(C(C)(C)C)cc2)ncnc1OCCOc1ncc(Br)cn1 | solubility [1]: 160 µg/mL (≈ 254 µM); pIC50 [2]: < 9.00
2 | > 12.00 | Cc1ccc(-c2c(NS(=O)(=O)c3ccc(C(C)(C)C)cc3)ncnc2OCCOc2ncc(Br)cn2)cc1 | solubility [3]: 1.6 µg/mL (≈ 2.67 µM)
3 | 8.41 | Cc1ccc(-c2c(NS(=O)(=O)c3ccc(C(C)(C)C)cc3)nc(-c3cccs3)nc2OCCOc2ncc(Br)cn2)cc1 | 
4 | < 8.00 | COc1ccccc1Oc1c(NS(=O)(=O)c2ccc(C(C)(C)C)cc2)nc(C(F)(F)F)nc1OCCOc1ncc(Br)cn1 | 
5 | 8.57 | COc1ccccc1Oc1c(NS(=O)(=O)c2ccc(C(C)(C)C)cc2)nc(C)nc1OCCOc1ncc(Br)cn1 | 
6 | 9.82 | COc1ccccc1Oc1c(NS(=O)(=O)c2ccc(C(C)(C)C)cc2)nc(SCCO)nc1OCCOc1ncc(Br)cn1 | 
7 | 11.60 | COc1ccccc1Oc1c(NS(=O)(=O)c2ccc(C(C)(C)C)cc2)nc(N2CCC(O)CC2)nc1OCCOc1ncc(Br)cn1 | solubility [1]: 2570 µg/mL (≈ 3520 µM); pIC50 [2]: < 9.00
8 | 11.28 | COc1ccccc1Oc1c(NS(=O)(=O)c2ccc(C(C)(C)C)cc2)nc(NCCO)nc1OCCOc1ncc(Br)cn1 | solubility [1]: 7320 µg/mL (≈ 10600 µM); pIC50 [2]: < 9.00
9 | 9.70 | COc1ccccc1Oc1c(NS(=O)(=O)c2ccc(C(C)(C)C)cc2)nc(OCCO)nc1OCCOc1ncc(Br)cn1 | 
10 | 8.80 | CCCc1nc(NS(=O)(=O)c2ccc(C(C)(C)C)cc2)c(-c2ccc(C)cc2)c(OCCOc2ncc(Br)cn2)n1 | 
11 | < 8.00 | COc1ccccc1Oc1c(NS(=O)(=O)c2ccc(C(C)(C)C)cc2)nc(N)nc1OCCOc1ncc(Br)cn1 | 
12 | < 8.00 | COc1ccccc1Oc1c(NS(=O)(=O)c2ccc(C(C)(C)C)cc2)nc(N(C)CCO)nc1OCCOc1ncc(Br)cn1 | 
13 | 10.37 | Cc1ccc(-c2c(NS(=O)(=O)c3ccc(C(C)(C)C)cc3)nc(-c3ccccn3)nc2OCCOc2ncc(Br)cn2)cc1 | 
14 | < 8.00 | CNCCNc1nc(NS(=O)(=O)c2ccc(C(C)(C)C)cc2)c(Oc2ccccc2OC)c(OCCOc2ncc(Br)cn2)n1 | 
15 | 10.59 | CCCc1nc(NS(=O)(=O)c2ccc(C(C)(C)C)cc2)c(Oc2ccccc2OC)c(OCCOc2ncc(Br)cn2)n1 | 
16 | < 8.00 | Cc1ccc(-c2c(NS(=O)(=O)c3ccc(C(C)(C)C)cc3)nc(-c3ccccc3)nc2OCCOc2ncc(Br)cn2)cc1 | 
17 | < 8.00 | COc1nc(NS(=O)(=O)c2ccc(C(C)(C)C)cc2)c(Oc2ccccc2OC)c(OCCOc2ncc(Br)cn2)n1 | 
18 | 8.00 | COc1ccccc1Oc1c(NS(=O)(=O)c2ccc(C(C)(C)C)cc2)nc(SCCC(=O)O)nc1OCCOc1ncc(Br)cn1 | 
19 | 9.35 | COc1ccccc1Oc1c(NS(=O)(=O)c2ccc(C(C)(C)C)cc2)nc(N2CCN(C)CC2)nc1OCCOc1ncc(Br)cn1 | 
20 | < 8.00 | COc1ccccc1Oc1c(NS(=O)(=O)c2ccc(C(C)(C)C)cc2)nc(NCCCO)nc1OCCOc1ncc(Br)cn1 | 
21 | 8.96 | Cc1ccc(-c2c(NS(=O)(=O)c3ccc(C(C)(C)C)cc3)nc(C(C)C)nc2OCCOc2ncc(Br)cn2)cc1 | 
